Source: article PMC7655512 (Cell stem cell, 2020)

How the values were obtained:
[1] = tested on: genetic and pharmacological LQT3 hiPSC-CM models; assay: Optical voltage assay across genetic and pharmacological LQT3 hiPSC-CM models; assay type: cell-based, human; conditions: for general APD effect at low or high doses: summary over all models, result in words
[2] = tested on: HD.113 hiPSC-CMs treated with ATX-II; assay: High dose ATX-II induced arrhythmia in healthy donor hiPSC-CMs; assay type: cell-based, human; conditions: ATX-II 1 μM; result in words
[3] = tested on: LQT3 SCN5A N406K hiPSC-CMs; assay: Optical voltage assay, second genetic LQT3 model; assay type: cell-based, human; conditions: result in words
HD.CDI hiPSC-CMs = assay: High throughput optical action potential recording, healthy donor hiPSC-CMs; conditions: result in words
SCN5A L409P/R588 mutant = SCN5A L409P/R588 mutant (Homo sapiens, UniProt Q14524, H558R/L409P); assay: Automated planar patch clamp of LQT3 mutant channel in HEK293T cells; assay type: cell-based; conditions: for preference of block between INaP and INaL: result in words
SCN5A L409P/R588 mutant, sequence (Q14524 whole entry L409P/H558R): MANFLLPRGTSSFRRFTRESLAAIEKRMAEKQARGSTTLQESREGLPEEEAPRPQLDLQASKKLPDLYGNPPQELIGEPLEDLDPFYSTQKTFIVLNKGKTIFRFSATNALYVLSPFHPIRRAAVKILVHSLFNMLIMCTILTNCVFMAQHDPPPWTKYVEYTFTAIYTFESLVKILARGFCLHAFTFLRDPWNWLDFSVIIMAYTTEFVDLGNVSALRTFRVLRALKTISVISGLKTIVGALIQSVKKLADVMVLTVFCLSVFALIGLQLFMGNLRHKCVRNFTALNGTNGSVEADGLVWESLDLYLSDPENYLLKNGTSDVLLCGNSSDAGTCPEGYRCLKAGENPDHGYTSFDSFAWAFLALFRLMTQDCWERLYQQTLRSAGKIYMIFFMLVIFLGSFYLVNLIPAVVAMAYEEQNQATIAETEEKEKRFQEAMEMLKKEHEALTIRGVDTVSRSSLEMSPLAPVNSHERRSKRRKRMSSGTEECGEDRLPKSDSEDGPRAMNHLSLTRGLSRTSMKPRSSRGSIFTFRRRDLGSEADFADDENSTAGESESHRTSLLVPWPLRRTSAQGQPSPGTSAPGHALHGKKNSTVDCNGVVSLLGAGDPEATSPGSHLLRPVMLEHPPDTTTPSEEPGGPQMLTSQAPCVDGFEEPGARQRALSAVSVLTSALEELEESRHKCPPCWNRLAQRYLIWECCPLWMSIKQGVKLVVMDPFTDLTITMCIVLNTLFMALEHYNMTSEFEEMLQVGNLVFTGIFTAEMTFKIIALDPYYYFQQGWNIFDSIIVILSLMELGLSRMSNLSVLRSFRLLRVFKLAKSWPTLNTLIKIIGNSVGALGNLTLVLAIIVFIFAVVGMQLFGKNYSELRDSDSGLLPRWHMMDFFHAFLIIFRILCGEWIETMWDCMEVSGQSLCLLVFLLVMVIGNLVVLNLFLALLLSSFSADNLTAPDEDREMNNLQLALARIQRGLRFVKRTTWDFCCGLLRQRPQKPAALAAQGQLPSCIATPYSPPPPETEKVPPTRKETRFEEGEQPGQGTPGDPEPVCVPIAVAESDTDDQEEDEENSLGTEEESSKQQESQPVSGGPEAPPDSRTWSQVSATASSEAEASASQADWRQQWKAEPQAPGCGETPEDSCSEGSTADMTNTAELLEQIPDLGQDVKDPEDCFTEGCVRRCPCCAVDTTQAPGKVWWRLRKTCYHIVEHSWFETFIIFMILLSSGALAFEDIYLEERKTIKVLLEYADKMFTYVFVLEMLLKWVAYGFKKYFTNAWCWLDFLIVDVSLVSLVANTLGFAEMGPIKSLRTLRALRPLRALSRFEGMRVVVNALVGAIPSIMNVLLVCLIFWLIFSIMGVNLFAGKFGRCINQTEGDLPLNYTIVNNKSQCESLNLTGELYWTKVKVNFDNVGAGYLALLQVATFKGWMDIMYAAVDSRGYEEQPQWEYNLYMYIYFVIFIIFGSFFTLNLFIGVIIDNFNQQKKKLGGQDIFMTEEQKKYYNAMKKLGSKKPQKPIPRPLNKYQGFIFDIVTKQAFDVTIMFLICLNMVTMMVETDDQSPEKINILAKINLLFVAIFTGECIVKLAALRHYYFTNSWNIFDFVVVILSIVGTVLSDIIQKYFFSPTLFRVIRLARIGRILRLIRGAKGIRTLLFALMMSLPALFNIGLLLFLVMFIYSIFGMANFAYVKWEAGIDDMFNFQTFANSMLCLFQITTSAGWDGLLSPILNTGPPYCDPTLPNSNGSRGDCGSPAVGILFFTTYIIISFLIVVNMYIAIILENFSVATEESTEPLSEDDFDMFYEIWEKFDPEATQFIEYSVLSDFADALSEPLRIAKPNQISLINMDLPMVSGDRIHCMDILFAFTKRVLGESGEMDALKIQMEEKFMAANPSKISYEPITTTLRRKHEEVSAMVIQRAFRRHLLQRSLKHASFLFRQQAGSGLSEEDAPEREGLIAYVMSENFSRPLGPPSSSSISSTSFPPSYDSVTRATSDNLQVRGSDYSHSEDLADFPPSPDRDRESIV

SMILES: COc1ccccc1OCC(O)CN1CCN(CC(=O)Nc2c(C)cccc2C)CC1 (stereo not shown) [ranolazine]
- general APD effect at low or high doses [1]: prolonged the APD at high doses
- suppression of ATX-II induced arrhythmia [2]: blocked arrhythmia only in the genetic LQT3 model
- APD change [3]: did not shorten APD and induced EADs at high doses
- suppression of spontaneous arrhythmia [3]: blocked arrhythmia only in the genetic LQT3 model

SMILES: NC(COc1ccccc1C(F)(F)F)c1ccccc1 (stereo not shown) [MexA4, 1-Phenyl-2-(2-(trifluoromethyl)phenoxy)ethan-1-amine]
- proarrhythmic response (APD prolongation, EADs) (HD.CDI hiPSC-CMs): not proarrhythmic

SMILES: Cc1cc(C)cc(OCC(N)c2ccccc2)c1 (stereo not shown) [MexA3]
- block of INaL (SCN5A L409P/R588 mutant): did not block INaL
- preference of block between INaP and INaL (SCN5A L409P/R588 mutant): preferentially blocked INaP over INaL

SMILES: FC(F)(F)Oc1ccc(-c2ccc3nnc(C(F)(F)F)n3c2)cc1 [GS-967]
- general APD effect at low or high doses [1]: most pronounced shortening at low doses
- suppression of ATX-II induced arrhythmia [2]: effective
- suppression of spontaneous arrhythmia [3]: effective

SMILES: Cc1ccccc1OCC(N)c1ccccc1 (stereo not shown) [MexA2, 1-Phenyl-2-(o-tolyloxy)ethan-1-amine]
- preference of block between INaP and INaL (SCN5A L409P/R588 mutant): preferentially blocked INaP over INaL

SMILES: COCCNC(COc1cccc(C)c1C)c1ccccc1 (stereo not shown) [MexA5, 2-(2,3-dimethylphenoxy)-N-(2-methoxyethyl)-1-phenylethan-1-amine]
- general APD effect at low or high doses [1]: most pronounced shortening at low doses
- asystole effect, change with N-ethyl methoxy substitution (HD.CDI hiPSC-CMs; high concentrations): decreased this effect
- suppression of spontaneous arrhythmia [3]: terminated spontaneous arrhythmias

SMILES: Cc1cccc(C)c1OCC(C)N (stereo not shown) [mexiletine, Mexiletine]
- APD change across LQT3 hiPSC-CM models [1]: substantially prolonged the AP in all hiPSC-CMs examined
- APD shortening in pharmacological LQT3 models [1]: not in all the pharmacological models
- general APD effect at low or high doses [1]: prolonged the APD at high doses
- proarrhythmic response (APD prolongation, EADs) (HD.CDI hiPSC-CMs): proarrhythmic response
- APD change [3]: weakly
